Here are results for one molecule from US20090082438A1, “Coordination Compound Composed of Diaminocyclohexane Platinum (II) and Block Copolymer and Anti-Cancer Agent Comprising the Same” (priority 2005, published 2009).

Data set [1] is described as follows: Treating Test Example 2: toxicity (body weight change, deaths) in treated CDF1 mice. To be noted: 10 mg/kg. The source says: In this experiment, the treatment was started on the 9th day after the tumor transplantation.
Data set [2] deals with mouse colon cancer Colon-26 cell line. The data set is described as follows: Treating Test Example 2: anti-tumor and life-prolongation effect, i.v. administration to Colon-26-transplanted CDF1 mice. The format is in vivo.

Counter-ions that a name gives are not always drawn.

In the case of `O=C1[O][Pt-2]2([NH2+]C3CCCC[C@H]3[NH2+]2)[O]C1=O` (stereo partly shown) [oxaliplatin, oxalate (1,2-diaminocyclohexane)platinum (II)], in data set [1], the “body weight reduction to” value amounted to 80% and the “deaths compared with untreated group (survival number)” value is given as “earlier deaths than the untreated group”. The “life-prolonging effect (survival)” value in data set [2] (doses 2, 4 or 6 mg/kg oxaliplatin) is reported as “little life-prolonging effect”. Besides, the “remarkable tumor growth-inhibiting effect” value in data set [2] (oxaliplatin up to 10 mg/kg, every third day, three times) is given as “not observed”.
